Measured values: US10294218B2 (VIROSTATICS SRL, priority 2012, dated 2019)

System: Primary T cells
Assay: Antiproliferative activity (AP), mitotic index by flow cytometry
Type: cell-based
Settings: T-cell, read-out: AP50 (Inhibitory concentration 50% for antiproliferative capacity)
Protocol: Primary T cells are cultured and exposed to different concentrations of the test compounds. Cell proliferation is analysed by measuring mitotic index (ie the number of cell divisions a population of cells undergoes) through flow cytometry based techniques. Mitotic index is expressed as percentage of untreated control. Inhibition of cell proliferation (AP) is then calculated (AP=100 minus % mitotic index compared to control, AP of control=0%). Inhibitory concentration 50% for antiproliferative capacity (AP50) is calculated.
(§1) In Tables 2, 3 and 4, ND means Not Determined.

Row | SMILES | IC50 [nM]
1 | COc1ccc(Nc2cc(-c3ccccc3OC)ncn2)cc1CNc1ccccc1 [Example 34, N-(4-Methoxy-3-((phenylamino)methyl)phenyl)-6-(2-methoxyphenyl)pyrimidin-4-amine] | > 5000
2 | COc1ccc(Nc2cc(-c3ccccc3OC)ncn2)cc1CNCc1ccccc1 [Example 1, N-(3-((Benzylamino)methyl)-4-methoxyphenyl)-6-(2-methoxyphenyl)pyrimidin-4-amine] | 2500
3 | COc1ccc(Nc2cc(-c3ccccc3OC)ncn2)cc1C(=O)NN [Example 33, 2-Methoxy-5-(6-(2-methoxyphenyl)pyrimidin-4-ylamino)benzohydrazide] | 2000
4 | COc1ccccc1-c1cc(Nc2ccc(N(C)C)c(Cn3cnc4ccccc43)c2)ncn1 [Example 42, 2-((1H-Benzo[d]imidazol-1-yl)methyl)-N4-(6-(2-methoxyphenyl)pyrimidin-4-yl)-N1,N1-dimethylbenzene-1,4-diamine] | 1800

Same assay, conditions: T-cell; primary T cells, mitotic index; read-out: AP50 (Inhibitory concentration 50% for antiproliferative capacity)

Row | SMILES | IC50 [nM]
5 | COc1ccccc1-c1cc(Nc2ccc(Cl)c(C(N)=O)c2)ncn1 [Example 44, 2-Chloro-5-(6-(2-methoxyphenyl)pyrimidin-4-ylamino)benzamide] | 5000
6 | COc1ccccc1-c1cc(Nc2ccc(Cl)c(C(=O)N3CCCC3)c2)ncn1 [Example 15, (2-Chloro-5-(6-(2-methoxyphenyl)pyrimidin-4-ylamino)phenyl)(pyrrolidin-1-yl)methanone] | > 500
7 | CCOC(=O)c1cc(Nc2cc(-c3ccccc3OC)ncn2)ccc1Cl [Example 14, Ethyl 2-chloro-5-(6-(2-methoxyphenyl)pyrimidin-4-ylamino)benzoate] | > 500
8 | COc1ccccc1-c1cc(Nc2ccc(Cl)c(C(=O)NN)c2)ncn1 [Example 7, 2-Chloro-5-(6-(2-methoxyphenyl)pyrimidin-4-ylamino)benzohydrazide] | 4000
9 | COc1ccc(Nc2cc(-c3ccccc3OC)ncn2)cc1CNS(C)(=O)=O [Example 4, N-(2-Methoxy-5-(6-(2-methoxyphenyl)pyrimidin-4-ylamino)benzyl)methanesulfonamide] | 1500

System: laboratory strain of HIV-1
Assay: Antiviral activity against HIV (AV), p24 in infected activated primary T cells
Type: cell-based
Settings: Human immunodeficiency virus 1, T-cell, read-out: AV50 (Inhibitory concentration 50% for antiviral activity)
Protocol: Activated primary T cells are infected with a laboratory strain of HIV-1, then cultured and exposed to different concentrations of the test compounds. HIV replication is analysed by measuring the viral protein p24 and expressed as percentage of untreated control. Inhibition of viral replication (AV) is then calculated (AV=100 minus the % p24 compared to control, AV of control=0%). Inhibitory concentration 50% for antiviral activity (AV50) is calculated.
as §1

Row | SMILES | IC50 [nM]
10 | COc1cc(F)ccc1-c1cc(Nc2cc(N)c(OC)c(F)c2)ncn1 [Example 90, 5-Fluoro-N^1-[6-(4-fluoro-2-methoxy-phenyl)-pyrimidin-4-yl]-4-methoxy-benzene-1,3-diamine] | > 400
11 | COc1ccc(Nc2cc(-c3ccccc3O)ncn2)cc1N [Example 70, 2-[6-(3-Amino-4-methoxy-phenylamino)-pyrimidin-4-yl]-phenol] | > 10000
12 | COc1ccc(Nc2cc(-c3cccc(F)c3OC)ncn2)cc1N [Example 81, N^1-[6-(3-Fluoro-2-methoxy-phenyl)-pyrimidin-4-yl]-4-methoxy-benzene-1,3-diamine] | 60
13 | COc1cc(F)ccc1-c1cc(Nc2cc(F)c(OC)c(C(N)=O)c2)ncn1 [Example 138, 3-Fluoro-5-[6-(4-fluoro-2-methoxy-phenyl)-pyrimidin-4-ylamino]-2-methoxy-benzamide] | > 400
14 | COc1ccccc1-c1cc(Nc2ccc(C(N)=O)c(Cl)c2)ncn1 [Example 132, 2-Chloro-4-[6-(2-methoxy-phenyl)-pyrimidin-4-ylamino]-benzamide] | 5000
15 | COc1cc(F)c(Nc2cc(-c3ccccc3OC)ncn2)cc1N [Example 92, 4-Fluoro-6-methoxy-N^3-[6-(2-methoxy-phenyl)-pyrimidin-4-yl]-benzene-1,3-diamine] | 250
16 | COC(=O)c1ccc(Nc2cc(-c3ccccc3OC)ncn2)cc1OC [Example 133, 2-Methoxy-4-[6-(2-methoxy-phenyl)-pyrimidin-4-ylamino]-benzoic Acid Methyl Ester] | 7000
17 | COc1ccc(Nc2cc(-c3cc(F)c(F)cc3OC)ncn2)cc1N [Example 83, N^1-[6-(4,5-Difluoro-2-methoxy-phenyl)-pyrimidin-4-yl]-4-methoxy-benzene-1,3-diamine] | 7
18 | COc1ccccc1-c1cc(Nc2cc(N)c(OC)c(F)c2)ncn1 [Example 88, 5-Fluoro-4-methoxy-N^1-[6-(2-methoxy-phenyl)-pyrimidin-4-yl]-benzene-1,3-diamine] | > 400
19 | CCOc1ccccc1-c1cc(Nc2ccc(OC)c(N)c2)ncn1 [Example 62, N^1-[6-(2-Ethoxy-phenyl)-pyrimidin-4-yl]-4-methoxy-benzene-1,3-diamine] | < 80
20 | COc1ccc(F)cc1-c1cc(Nc2cc(F)c(OC)c(C(N)=O)c2)ncn1 [Example 140, 3-Fluoro-5-[6-(5-fluoro-2-methoxy-phenyl)-pyrimidin-4-ylamino]-2-methoxy-benzamide] | > 400
21 | COc1cccc(-c2cc(Nc3ccc(OC)c(N)c3)ncn2)c1 [Example 68, 4-Methoxy-N^1-[6-(3-methoxy-phenyl)-pyrimidin-4-yl]-benzene-1,3-diamine] | 1000
22 | CCOc1ccc(Nc2cc(-c3ccc(F)cc3OC)ncn2)cc1N [Example 105, 4-Ethoxy-N^1-[6-(4-fluoro-2-methoxy-phenyl)-pyrimidin-4-yl]-benzene-1,3-diamine] | 16
23 | CCOc1ccccc1-c1cc(Nc2cc(F)c(OC)c(C(N)=O)c2)ncn1 [Example 141, 5-[6-(2-Ethoxy-phenyl)-pyrimidin-4-ylamino]-3-fluoro-2-methoxy-benzamide] | 80
24 | CCOc1ccc(Nc2cc(-c3ccccc3OC)ncn2)cc1N [Example 101, 4-Ethoxy-N^1-[6-(2-methoxy-phenyl)-pyrimidin-4-yl]-benzene-1,3-diamine] | 60
25 | COc1ccc(Nc2cc(-c3ccc(F)cc3OC(C)C)ncn2)cc1N [Example 86, N^1-[6-(4-Fluoro-2-isopropoxy-phenyl)-pyrimidin-4-yl]-4-methoxy-benzene-1,3-diamine] | 100
26 | CCOc1cc(F)ccc1-c1cc(Nc2cc(F)c(OC)c(C(N)=O)c2)ncn1 [Example 139, 5-[6-(2-Ethoxy-4-fluoro-phenyl)-pyrimidin-4-ylamino]-3-fluoro-2-methoxy-benzamide] | 400
27 | COc1ccc(Nc2cc(-c3ccc(F)cc3OC)ncn2)cc1O [Example 123, 5-[6-(4-Fluoro-2-methoxy-phenyl)-pyrimidin-4-ylamino]-2-methoxy-phenol] | 50
28 | CCOc1cc(F)ccc1-c1cc(Nc2ccc(OC)c(N)c2)ncn1 [Example 73, N^1-[6-(2-Ethoxy-4-fluoro-phenyl)-pyrimidin-4-yl]-4-methoxy-benzene-1,3-diamine] | 0.2
29 | COc1ccc(Nc2cc(-c3ccccc3OCc3ccccc3)ncn2)cc1N [Example 71, N^1-[6-(2-Benzyloxy-phenyl)-pyrimidin-4-yl]-4-methoxy-benzene-1,3-diamine] | 2000
30 | CCOc1ccc(F)cc1-c1cc(Nc2ccc(OC)c(C(N)=O)c2)ncn1 [Example 131, 5-[6-(2-Ethoxy-5-fluoro-phenyl)-pyrimidin-4-ylamino]-2-methoxy-benzamide] | < 80
31 | CCOc1ccc(F)cc1-c1cc(Nc2cc(C(N)=O)c(OC)cc2F)ncn1 [Example 148, 5-[6-(2-Ethoxy-5-fluoro-phenyl)-pyrimidin-4-ylamino]-4-fluoro-2-methoxy-benzamide] | < 80
32 | CCOc1cc(F)ccc1-c1cc(Nc2ccc(OC)c(C(N)=O)c2)ncn1 [Example 130, 5-[6-(2-Ethoxy-4-fluoro-phenyl)-pyrimidin-4-ylamino]-2-methoxy-benzamide] | 16
33 | COc1ccc(Nc2cc(-c3cc(F)ccc3OC)ncn2)cc1O [Example 122, 5-[6-(5-Fluoro-2-methoxy-phenyl)-pyrimidin-4-ylamino]-2-methoxy-phenol] | 80
34 | COc1ccccc1-c1cc(Nc2cc(F)c(OC)c(C(N)=O)c2)ncn1 [Example 137, 3-Fluoro-2-methoxy-5-[6-(2-methoxy-phenyl)-pyrimidin-4-ylamino]-benzamide] | > 2000
35 | CCOc1cc(F)ccc1-c1cc(Nc2cc(N)c(OC)c(F)c2)ncn1 [Example 89, N^1-[6-(2-Ethoxy-4-fluoro-phenyl)-pyrimidin-4-yl]-5-fluoro-4-methoxy-benzene-1,3-diamine] | > 400
36 | COc1ccc(Nc2cc(-c3ccccc3Oc3ccccc3)ncn2)cc1N [Example 77, 4-Methoxy-N^1-[6-(2-phenoxy-phenyl)-pyrimidin-4-yl]-benzene-1,3-diamine] | 10000
37 | COc1ccc(-c2cc(Nc3ccc(OC)c(N)c3)ncn2)cc1 [Example 66, 4-Methoxy-N^1-[6-(4-methoxy-phenyl)-pyrimidin-4-yl]-benzene-1,3-diamine] | > 10000

Same assay, conditions: summary of AV, AP and cytotoxicity assays

Row | SMILES | antiviral and antiproliferative activity and cytotoxicity profile (in words)
38 | COc1ccc(Nc2cc(-c3cc(F)c(F)cc3OC)ncn2)cc1N [Example 83, N^1-[6-(4,5-Difluoro-2-methoxy-phenyl)-pyrimidin-4-yl]-4-methoxy-benzene-1,3-diamine] | good antiviral and antiproliferative activity and a good cytotoxicity profile
39 | CCOc1ccccc1-c1cc(Nc2ccc(OC)c(N)c2)ncn1 [Example 62, N^1-[6-(2-Ethoxy-phenyl)-pyrimidin-4-yl]-4-methoxy-benzene-1,3-diamine] | good antiviral and antiproliferative activity and a good cytotoxicity profile
40 | CCOc1ccccc1-c1cc(Nc2cc(F)c(OC)c(C(N)=O)c2)ncn1 [Example 141, 5-[6-(2-Ethoxy-phenyl)-pyrimidin-4-ylamino]-3-fluoro-2-methoxy-benzamide] | good antiviral and antiproliferative activity and a good cytotoxicity profile
41 | COc1ccc(Nc2cc(-c3ccc(F)cc3OC)ncn2)cc1O [Example 123, 5-[6-(4-Fluoro-2-methoxy-phenyl)-pyrimidin-4-ylamino]-2-methoxy-phenol] | good antiviral and antiproliferative activity and a good cytotoxicity profile
42 | CCOc1cc(F)ccc1-c1cc(Nc2ccc(OC)c(N)c2)ncn1 [Example 73, N^1-[6-(2-Ethoxy-4-fluoro-phenyl)-pyrimidin-4-yl]-4-methoxy-benzene-1,3-diamine] | good antiviral and antiproliferative activity and a good cytotoxicity profile
43 | CCOc1ccc(F)cc1-c1cc(Nc2ccc(OC)c(C(N)=O)c2)ncn1 [Example 131, 5-[6-(2-Ethoxy-5-fluoro-phenyl)-pyrimidin-4-ylamino]-2-methoxy-benzamide] | good antiviral and antiproliferative activity and a good cytotoxicity profile
44 | CCOc1cc(F)ccc1-c1cc(Nc2ccc(OC)c(C(N)=O)c2)ncn1 [Example 130, 5-[6-(2-Ethoxy-4-fluoro-phenyl)-pyrimidin-4-ylamino]-2-methoxy-benzamide] | good antiviral and antiproliferative activity and a good cytotoxicity profile
